{
  "source": "patent US4108991A",
  "about": "“N-aminosulfenyl derivatives of aldicarb” (priority 1976, dated 1978)",
  "key": {"Pea aphid": {"system": "Pea aphid", "assay": "Systemic activity, soil-watering, pea aphid", "type": "in vivo, Acyrthosiphon pisum [Harris]", "settings": "Acyrthosiphon pisum, 48 h, systemic, PA, read-out: Percent Kill", "experimental": "(§1) Initial Contact Activity: One half gram of test compound was dissolved in 40 ml of acetone and this solution was dispersed in 360 ml of water containing one drop of isooctylphenyl polyethoxyethanol. Aliquots of this solution, which corresponds to 1250 ppm of active ingredient, were diluted with an appropriate amount of water to provide solutions containing various concentrations of active ingredient. Test organisms and techniques were as follows: The activity against the Mexican bean beetle (Epilachna varivestis Muls.) and the southern armyworm (Spodoptera eridania [Cram.]) was evaluated by dipping the leaves of pinto bean plants into the test solution and infesting the leaves with the appropriate immature-form insects when the foiliage had dried; the activity against the pea aphid (Acyrthosiphon pisum [Harris]) was evaluated on broad bean plants whose leaves were dipped before infestation with adult aphids; the activity against two-sotted spider mites (Tetranychus urticae Koch) was evaluated on pinto bean plants whose leaves were dipped after infestation with adult mites; the activity against the milkweed bug (Oncopeltus fasciatus [Dallas]), and the plum curculio (Conotrachelus nenuphar [Herbst]) was evaluated by spraying the test solutions into glass dishes or jars containing the adult insects; the activity against the confused flour beetle (Tribolium confusum duVal) was evaluated by introducing the insects into glass dishes which had been previously sprayed with test solution and allowed to dry. All organisms in the test were maintained in a holding room at 80° F and 50% relative humidity for an exposure period of 48 hours. At the end of this time, the dead and living insects or mites were counted, and the percent kill was calculated.\n(§2) Systemic Activity: Systemic activity was measured using a soil-watering technique. Test organisms were Mexican bean beetle, southern armyworm, pea aphid, and mites on plants as described above in this Example. With appropriate precautions to avoid contact of the solution with the test plant surfaces, 25 ml of a test solution, prepared as above to contain the desired amount of active ingredient, were poured evenly over the surface of the soil in which the plant was growing. The treated plants were maintained under normal growing conditions for three days to permit translocation of the toxicant, after which the leaves were infested. Two days after infestation, counts of living and dead insects were made."}, "insects and mites": {"system": "insects and mites", "assay": "Systemic activity (soil-watering), insects and mites in general", "type": "in vivo", "settings": "in words", "experimental": "as §2"}, "Two-spotted spider mite [1]": {"system": "Two-spotted spider mite", "assay": "Residual (7-day) contact activity, two-spotted spider mite", "type": "in vivo, Tetranychus urticae Koch", "settings": "Tetranychus urticae, 168 h", "experimental": "as §1\n(§3) Residual Contact Activity: The residual contact activity of the compounds was determined on the same organisms using the techniques described above, except that in each case the treated surface was allowed to dry and was exposed to normal light and air for seven days before introduction of the mites or insects."}, "Two-spotted spider mite [2]": {"system": "Two-spotted spider mite", "assay": "Systemic activity, soil-watering, two-spotted spider mite", "type": "in vivo, Tetranychus urticae Koch", "settings": "Tetranychus urticae, 48 h, systemic, SM, read-out: Percent Kill", "experimental": "as §1, §2"}, "Plum curculio": {"system": "Plum curculio", "assay": "Residual (7-day) contact activity, plum curculio", "type": "in vivo, Conotrachelus nenuphar [Herbst]", "settings": "Conotrachelus nenuphar, 168 h, read-out: Percent Kill", "experimental": "as §1, §3"}, "Mexican bean beetle": {"system": "Mexican bean beetle", "assay": "Initial contact activity, leaf dip, Mexican bean beetle", "type": "in vivo, Epilachna varivestis Muls.", "settings": "Epilachna varivestis, foliar, 48 h, initial, BB, 48 hours, read-out: Percent Kill", "experimental": "as §1"}, "Two-spotted spider mite [3]": {"system": "Two-spotted spider mite", "assay": "Initial contact activity, leaf dip, two-spotted spider mite", "type": "in vivo, Tetranychus urticae Koch", "settings": "Tetranychus urticae, foliar, 48 h, initial, SM, 48 hours, read-out: Percent Kill", "experimental": "as §1"}, "Southern armyworm": {"system": "Southern armyworm", "assay": "Systemic activity, soil-watering, southern armyworm", "type": "in vivo, Spodoptera eridania [Cram.]", "settings": "Spodoptera eridania, 48 h, systemic, AW, read-out: Percent Kill", "experimental": "as §1, §2"}},
  "data": [
    {"smiles": "CSC(C)(C)C=NOC(=O)N(C)SN(C)C", "note": "[Example IV, 2-Methyl-2-(methylthio)propanal O-[(dimethylaminosulfenyl)-(methyl)carbamoyl]oxime]", "values": [
      {"measurement": "mortality at 5 ppm", "setting": "Pea aphid; 5 PPM", "result": 100, "unit": "%"},
      {"measurement": "mortality at 10 ppm", "setting": "Pea aphid; 10 PPM", "result": 100, "unit": "%"},
      {"measurement": "mortality at 312 ppm", "setting": "Pea aphid; 312 PPM", "result": 100, "unit": "%"},
      {"measurement": "systemic activity compared with aldicarb", "setting": "insects and mites", "result": "substantially the same as aldicarb"},
      {"measurement": "mortality at 625 ppm", "setting": "Two-spotted spider mite [1]; read-out: Percent Kill, residual 7-day, SM, 625 PPM", "result": 0, "unit": "%"},
      {"measurement": "mortality at 39 ppm", "setting": "Two-spotted spider mite [1]; residual 7-day, SM, 39 PPM, read-out: Percent Kill", "result": 18, "unit": "%"},
      {"measurement": "mortality at 156 ppm", "setting": "Two-spotted spider mite [1]; residual 7-day, SM, 156 PPM, read-out: Percent Kill", "result": 52, "unit": "%"},
      {"measurement": "mortality at 1250 ppm", "setting": "Two-spotted spider mite [1]; residual 7-day, SM, 1250 PPM, read-out: Percent Kill", "result": 100, "unit": "%"},
      {"measurement": "mortality at 5 ppm", "setting": "Two-spotted spider mite [2]; 5 PPM", "result": 100, "unit": "%"},
      {"measurement": "mortality at 39 ppm", "setting": "Two-spotted spider mite [2]; 39 PPM", "result": 100, "unit": "%"},
      {"measurement": "mortality at 312 ppm", "setting": "Two-spotted spider mite [2]; 312 PPM", "result": 100, "unit": "%"},
      {"measurement": "mortality at 625 ppm", "setting": "Plum curculio", "result": 0, "unit": "%"},
      {"measurement": "mortality at 1250 ppm", "setting": "Plum curculio; residual 7-day, PC, 1250 PPM", "result": 0, "unit": "%"},
      {"measurement": "mortality at 20 ppm", "setting": "Mexican bean beetle; 20 PPM", "result": 5, "unit": "%"},
      {"measurement": "mortality at 39 ppm", "setting": "Mexican bean beetle; 39 PPM", "result": 6, "unit": "%"},
      {"measurement": "mortality at 156 ppm", "setting": "Mexican bean beetle; 156 PPM", "result": 39, "unit": "%"},
      {"measurement": "mortality at 1250 ppm", "setting": "Mexican bean beetle; 1250 PPM", "result": 100, "unit": "%"},
      {"measurement": "mortality at 5 ppm", "setting": "Two-spotted spider mite [3]; 5 PPM", "result": 17, "unit": "%"},
      {"measurement": "mortality at 10 ppm", "setting": "Two-spotted spider mite [3]; 10 PPM", "result": 36, "unit": "%"},
      {"measurement": "mortality at 20 ppm", "setting": "Two-spotted spider mite [3]; 20 PPM", "result": 83, "unit": "%"},
      {"measurement": "mortality at 39 ppm", "setting": "Two-spotted spider mite [3]; 39 PPM", "result": 100, "unit": "%"},
      {"measurement": "mortality at 156 ppm", "setting": "Two-spotted spider mite [3]; 156 PPM", "result": 0, "unit": "%"},
      {"measurement": "mortality at 1250 ppm", "setting": "Two-spotted spider mite [3]; 1250 PPM", "result": 100, "unit": "%"},
      {"measurement": "mortality at 39 ppm", "setting": "Southern armyworm; 39 PPM", "result": 0, "unit": "%"},
      {"measurement": "mortality at 312 ppm", "setting": "Southern armyworm; 312 PPM", "result": 100, "unit": "%"}
    ]}
  ]
}
